Measured values as given in publication PMC5750238 (2018).

Experiments:
[1] = test system: 2H-AE construct (RNA, other) GGAAUUCAGGAGCUCGGGAGCGUCCACUGCUCCUGAGCGCUCCAGUGGACGGAGCCCUGGUGAAGCCUCCACGCCAGGUCCUGGAUUCCGCAUGUAUCGAGGACUGAAGGAGGCACGGUCCCACGGGCUCCGAGACGUGGAGUCCGUGUCCGCACGUCUCGCGGAUCGAUGCAUGC; assay: fluorescence activation; details: 125 mM KCl, 1 mM MgCl2; 1x TB assembly buffer; no fluorescence activation
[2] = test system: Spinach construct (RNA, aptamer) GGGAGAUGCUCCCAGUUACAUUCGUGUAGCUGGCCGUGCGGUAAGGACGGGUCCCUAGCUAAUUCGUUAGUUAGGUUGAGUAGAGUGUGAGACCGUACGGGCUGGUGAAGCCUCCACGCCAGCGAGCGUCUCCCGCAUGGCAACGCGACUGAAGGAGGCACGGUCGGCCAUCGGUUUCGACCGGUGGCGGUAGAGCCUUCGGGCUUUACCCGUUGUCAUGC; assay: fluorescence titration of RNA with fluorophore; details: 125 mM KCl, 1 mM MgCl2, 1x TB assembly buffer, 20 nM RNA, apparent
[3] = test system: Mango construct (RNA, aptamer) GGGAGAUCGUCCUAAGCGCUUUCGAGCGUUUAGCCUGGGUCGCGAAGGGACGGUGCGGAGAGGAGAGCGACUCAGGGAUGGUGAAGCCUCCACGCCAUCGACGGUCUCCCGAUACUCAUCGCGACUGAAGGAGGCACGGUCGGCAUUGUACUUCGGUACGAUGCGCAAGCGACUUCGGUCGUUUGCCGAUGGGUAUC; assay: fluorescence activation; details: 125 mM KCl, 1 mM MgCl2; 1x TB assembly buffer; EC50 given as N/A; titration to 2 µM
[4] = test system: Broccoli construct (RNA, aptamer) GGGAGAUGCUCCCAGUUACAUUCGUGUAGCUGGCCGUGCGAGACGGUCGGGUCCAUAGCUAAUUCGUUAGUUAUGUCGAGUAGAGUGUGGGCUCGUACGGGCUGGUGAAGCCUCCACGCCAGCGAGCGUCUCCCGCAUGGCAACGCGACUGAAGGAGGCACGGUCGGCCAUCGGUUUCGACCGGUGGCGGUAGAGCCUUCGGGCUUUACCCGUUGUCAUGC; assay: fluorescence titration of RNA with fluorophore; details: 125 mM KCl, 1 mM MgCl2; 1x TB assembly buffer; 20 nM RNA; fluorophore 1 nM to 2 µM; apparent
[5] = test system: Mango construct (RNA, aptamer) GGGAGAUCGUCCUAAGCGCUUUCGAGCGUUUAGCCUGGGUCGCGAAGGGACGGUGCGGAGAGGAGAGCGACUCAGGGAUGGUGAAGCCUCCACGCCAUCGACGGUCUCCCGAUACUCAUCGCGACUGAAGGAGGCACGGUCGGCAUUGUACUUCGGUACGAUGCGCAAGCGACUUCGGUCGUUUGCCGAUGGGUAUC; assay: fluorescence titration of RNA with fluorophore; details: 125 mM KCl, 1 mM MgCl2; 1x TB assembly buffer; 20 nM RNA; fluorophore 1 nM to 2 µM; apparent

SMILES | binding [1] | EC50 ([2]; fluorophore 1 nM to 2 µM) | binding [3] | EC50 [4] | EC50 ([2]; fluorophore 1 nM to 2 µM (value above range)) | EC50 [5]
CC1=N/C(=C\c2cc(F)c(O)c(F)c2)C(=O)N1CC(F)(F)F | no | 337.5 nM | no | 598.9 nM | – | –
CN1C=CC(=CC=Cc2oc3ccccc3[n+]2CC(=O)NCCOCCOCCOCCNC(=O)CCCC[C@@H]2SC[C@@H]3NC(=O)N[C@@H]32)c2ccccc21 | – | – | – | 1700 nM | 3920 nM | 25.6 nM
